Assay results published in patent US10695337B2, “Piperidin-4-yl azetidine derivatives as JAK1 inhibitors” (Incyte Corporation, priority 2010, dated 2020).

Target: human JAK1 (a.a. 837-1142)
Experiment: In vitro JAK kinase assay (HTRF, phosphorylation of a biotinylated peptide), JAK1
Format: biochemical
Settings: measured at 1 mM ATP; JAK2 IC50 / JAK1 IC50
How it was run: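 Phosphorylation of a biotinylated peptide by purified His-tagged JAK catalytic domains (insect-cell baculovirus expression) ran 1 hr at room temperature. After stopping with EDTA, Eu-Py20 and SA-APC were bound for 40 minutes and HTRF measured.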

Row | IC50 Ratio JAK2/JAK1 | Compound
1 | 4.5 | N#CCC1(n2cc(-c3c(F)cnc4[nH]ccc34)cn2)CN(C2CCN(C(=O)Nc3ncccc3C(F)(F)F)CC2)C1 [Example 329, 4-{3-(cyanomethyl)-3-[4-(5-fluoro-1H-pyrrolo[2,3-b]pyridin-4-yl)-1H-pyrazol-1-yl]azetidin-1-yl}-N-[3-(trifluoromethyl)pyridin-2-yl]piperidine-1-carboxamide]
2 | 6.7 | N#CCC1(n2cc(-c3c(F)cnc4[nH]ccc34)cn2)CN(C2CCN(C(=O)Nc3cnccc3C(F)(F)F)CC2)C1 [Example 330, 4-{3-(cyanomethyl)-3-[4-(5-fluoro-1H-pyrrolo[2,3-b]pyridin-4-yl)-1H-pyrazol-1-yl]azetidin-1-yl}-N-[4-(trifluoromethyl)pyridin-3-yl]piperidine-1-carboxamide]
3 | 8.8 | N#CCC1(n2cc(-c3c(C#N)cnc4[nH]ccc34)cn2)CN(C2CCN(C(=O)c3cc(F)cc(C#N)c3)CC2)C1 [Example 333, 4-{1-[1-[1-(3-cyano-5-fluorobenzoyl)piperidin-4-yl]-3-(cyanomethyl)azetidin-3-yl]-1H-pyrazol-4-yl}-1H-pyrrolo[2,3-b]pyridine-5-carbonitrile]
4 | 4.3 | N#CCC1(n2cc(-c3c(C#N)cnc4[nH]ccc34)cn2)CN(C2CCN(C(=O)c3ccc(C#N)c(F)c3)CC2)C1 [Example 334, 4-{1-[1-[1-(4-cyano-3-fluorobenzoyl)piperidin-4-yl]-3-(cyanomethyl)azetidin-3-yl]-1H-pyrazol-4-yl}-1H-pyrrolo[2,3-b]pyridine-5-carbonitrile]
5 | 2.4 | N#CCC1(n2cc(-c3c(C#N)cnc4[nH]ccc34)cn2)CN(C2CCN(C(=O)c3cc(Br)ccc3Br)CC2)C1 [Example 335]
6 | 2.9 | N#CCC1(n2cc(-c3c(C#N)cnc4[nH]ccc34)cn2)CN(C2CCN(C(=O)c3cc(Br)cc(Br)c3)CC2)C1 [Example 336]
7 | 6.0 | N#CCC1(n2cc(-c3c(C#N)cnc4[nH]ccc34)cn2)CN(C2CCN(C(=O)c3cc(C#N)ccc3C#N)CC2)C1 [Example 337, 2-[(4-{3-(cyanomethyl)-3-[4-(5-cyano-1H-pyrrolo[2,3-b]pyridin-4-yl)-1H-pyrazol-1-yl]azetidin-1-yl}piperidin-1-yl)carbonyl]terephthalonitrile]
8 | 7.4 | N#CCC1(n2cc(-c3c(C#N)cnc4[nH]ccc34)cn2)CN(C2CCN(C(=O)c3cc(C#N)cc(C#N)c3)CC2)C1 [Example 338, 5-[(4-{3-(cyanomethyl)-3-[4-(5-cyano-1H-pyrrolo[2,3-b]pyridin-4-yl)-1H-pyrazol-1-yl]azetidin-1-yl}piperidin-1-yl)carbonyl]isophthalonitrile]
9 | 1.4 | N#CCC1(n2cc(-c3c(C#N)cnc4[nH]ccc34)cn2)CN(C2CCN(C(=O)c3c(F)cc(C#N)cc3F)CC2)C1 [Example 340, 4-{1-[1-[1-(4-cyano-2,6-difluorobenzoyl)piperidin-4-yl]-3-(cyanomethyl)azetidin-3-yl]-1H-pyrazol-4-yl}-1H-pyrrolo[2,3-b]pyridine-5-carbonitrile]
10 | 3.2 | N#CCC1(n2cc(-c3c(C#N)cnc4[nH]ccc34)cn2)CN(C2CCN(C(=O)c3cc(C(F)(F)F)ncc3Cl)CC2)C1 [Example 341, 4-{1-[1-{1-[5-chloro-2-(trifluoromethyl)isonicotinoyl]piperidin-4-yl}-3-(cyanomethyl)azetidin-3-yl]-1H-pyrazol-4-yl}-1H-pyrrolo[2,3-b]pyridine-5-carbonitrile]
11 | 5.5 | N#CCC1(n2cc(-c3ncnc4[nH]ccc34)cn2)CN(C2CCN(C(=O)c3cc(C(F)(F)F)ncc3F)CC2)C1 [Example 343, {1-{1-[5-Fluoro-2-(trifluoromethyl)isonicotinoyl]piperidin-4-yl}-3[4-(7H-pyrrolo[2,3-d]pyrimidin-4-yl)-1H-pyrazol-1-yl]azetidin-3-yl}acetonitrile]
12 | 15.0 | N#CCC1(n2cc(-c3ccnc4[nH]ccc34)cn2)CN(C2CCN(C(=O)c3nc(C(F)(F)F)cs3)CC2)C1 [Example 350, [3-[4-(1H-Pyrrolo[2,3-b]pyridin-4-yl)-1H-pyrazol-1-yl]-1-(1-{[4-(trifluoromethyl)-1,3-thiazol-2-yl]carbonyl}piperidin-4-yl)azetidin-3-yl]acetonitrile]
13 | 5.0 | N#CCC1(n2cc(-c3c(F)cnc4[nH]ccc34)cn2)CN(C2CCN(C(=O)c3ccnc(C(F)(F)F)n3)CC2)C1 [Example 353, [3-[4-(5-Fluoro-1H-pyrrolo[2,3-b]pyridin-4-yl)-1H-pyrazol-1-yl]-1-(1-{[2-(trifluoromethyl)pyrimidin-4-yl]carbonyl}piperidin-4-yl)azetidin-3-yl]acetonitrile]
14 | 2.1 | N#CCC1(n2cc(-c3c(F)cnc4[nH]ccc34)cn2)CN(C2CCN(C(=O)c3cnc(C(F)(F)F)cn3)CC2)C1 [Example 354, [3-[4-(5-Fluoro-1H-pyrrolo[2,3-b]pyridin-4-yl)-1H-pyrazol-1-yl]-1-(1-{[5-(trifluoromethyl)pyrazin-2-yl]carbonyl}piperidin-4-yl)azetidin-3-yl]acetonitrile]
15 | 3.1 | CS(=O)(=O)N1CCC(N2CC(CC#N)(n3cc(-c4c(F)cnc5[nH]ccc45)cn3)C2)CC1 [Example 355, {3-[4-(5-Fluoro-1H-pyrrolo[2,3-b]pyridin-4-yl)-1Hpyrazol-1-yl]-1-[1-(methylsulfonyl)piperidin-4-yl]azetidin-3-yl}acetonitrile]
16 | 5.8 | N#CCC1(n2cc(-c3c(C#N)cnc4[nH]ccc34)cn2)CN(C2CCN(C(=O)c3cc(C(F)(F)F)ncc3F)CC2)C1 [Example 356, 4-[1-(3-(Cyanomethyl)-1-{1-[5-fluoro-2-(trifluoromethyl)isonicotinoyl]piperidin-4-yl}azetidin-3-yl)-1H-pyrazol-4-yl]-1H-pyrrolo[2,3-b]pyridine-5-carbonitrile]
17 | 3.8 | CS(=O)(=O)N1CCC(N2CC(CC#N)(n3cc(-c4c(C#N)cnc5[nH]ccc45)cn3)C2)CC1 [Example 357, 4-(1-{3-(Cyanomethyl)-1-[1-(methylsulfonyl)piperidin-4-yl]azetidin-3-yl}-1H-pyrazol-4-yl)-1H-pyrrolo[2,3-b]pyridine-5-carbonitrile]

More lines, now with the values behind:

Row | Compound | IC50 Ratio JAK2/JAK1
18 | N#CCC1(n2cc(-c3ncnc4[nH]ccc34)cn2)CN(C2CCN(C(=O)c3cc(C(F)(F)F)ncc3Cl)CC2)C1 [Example 342, {1-{1-[5-Chloro-2-(trifluoromethyl)isonicotinoyl]piperidin-4-yl}-3-[4-(7H-pyrrolo[2,3-d]pyrimidin-4-yl)-1H-pyrazol-1-yl]azetidin-3-yl}acetonitrile] | 5.7
19 | N#CCC1(n2ccc(-c3ncnc4[nH]ccc34)c2)CN(C2CCN(C(=O)c3nc(C(F)(F)F)cs3)CC2)C1 [Example 346, [3-[3-(7H-Pyrrolo[2,3-d]pyrimidin-4-yl)-1H-pyrrol-1-yl]-1-(1-{[4-(trifluoromethyl)-1,3-thiazol-2-yl]carbonyl}piperidin-4-yl)azetidin-3-yl]acetonitrile] | 5.9
20 | N#CCC1(n2ccc(-c3ncnc4[nH]ccc34)c2)CN(C2CCN(C(=O)c3cnc(C(F)(F)F)cn3)CC2)C1 [Example 347, [3-[3-(7H-Pyrrolo[2,3-d]pyrimidin-4-yl)-1H-pyrrol-1-yl]-1-(1-{[5-(trifluoromethyl)pyrazin-2-yl]carbonyl}piperidin-4-yl)azetidin-3-yl]acetonitrile] | 2.7
21 | CS(=O)(=O)N1CCC(N2CC(CC#N)(n3ccc(-c4ncnc5[nH]ccc45)c3)C2)CC1 [Example 348, {1-[1-(Methylsulfonyl)piperidin-4-yl]-3-[3-(7H-pyrrolo[2,3-d]pyrimidin-4-yl)-1H-pyrrol-1-yl]azetidin-3-yl}acetonitrile] | 3.2
22 | CS(=O)(=O)N1CCC(N2CC(CC#N)(n3cc(-c4ccnc5[nH]ccc45)cn3)C2)CC1 [Example 351, {1-[1-(Methylsulfonyl)piperidin-4-yl]-3-[4-(1H-pyrrolo[2,3-b]pyridin-4-yl)-1H-pyrazol-1-yl]azetidin-3-yl}acetonitrile] | 3.8
23 | CN(C)Cc1cc(C(=O)N2CCC(N3CC(CC#N)(n4cc(-c5ncnc6[nH]ccc56)cn4)C3)CC2)nc(C(F)(F)F)n1 [Example 370, {1-(1-{[6-[(dimethylamino)methyl]-2-(trifluoromethyl)pyrimidin-4-yl]carbonyl}piperidin-4-yl)-3-[4-(7H-pyrrolo[2,3-d]pyrimidin-4-yl)-1H-pyrazol-1-yl]azetidin-3-yl}acetonitrile] | 55
24 | CCN(C)Cc1cc(C(=O)N2CCC(N3CC(CC#N)(n4cc(-c5ncnc6[nH]ccc56)cn4)C3)CC2)nc(C(F)(F)F)n1 [Example 374] | 50
25 | N#CCC1(n2cc(-c3ncnc4[nH]ccc34)cn2)CN(C2CCN(C(=O)c3cc(CO)nc(C(F)(F)F)n3)CC2)C1 [Example 381, {1-(1-{[6-(hydroxymethyl)-2-(trifluoromethyl)pyrimidin-4-yl]carbonyl}piperidin-4-yl)-3-[4-(7H-pyrrolo[2,3-d]pyrimidin-4-yl)-1H-pyrazol-1-yl]azetidin-3-yl}acetonitrile] | 20
26 | CCCOC(=O)N1CCC(N2CC(CC#N)(n3cc(-c4ncnc5[nH]ccc45)cn3)C2)CC1 [Example 386, Propyl 4-{3-(cyanomethyl)-3-[4-(7H-pyrrolo[2,3-d]pyrimidin-4-yl)-1H-pyrazol-1-yl]azetidin-1-yl}piperidine-1-carboxylate] | 7.7
27 | N#CCC1(n2cc(-c3ncnc4[nH]ccc34)cn2)CN(C2CCN(C(=O)OCC3CCC3)CC2)C1 [Example 387, Cyclobutylmethyl 4-{3-(cyanomethyl)-3-[4-(7H-pyrrolo[2,3-d]pyrimidin-4-yl)-1H-pyrazol-1-yl]azetidin-1-yl}piperidine-1-carboxylate] | 9.7
28 | CCOC(=O)N1CCC(N2CC(CC#N)(n3cc(-c4ncnc5[nH]ccc45)cn3)C2)CC1 [Example 388, ethyl 4-{3-(cyanomethyl)-3-[4-(7H-pyrrolo[2,3-d]pyrimidin-4-yl)-1H-pyrazol-1-yl]azetidin-1-yl}piperidine-1-carboxylate] | 7.6
